In brackets after ≈: the same amount, converted by molar mass. Bounds are passed on as bounds.

In series [1] the test system is MMP-2 (gelatinase A) expressed by COLO 205 cells. Nature of the series: MMP protein expression by Western blot of conditioned medium, COLO 205 cells. The class given is cell-based, human. The settings on record: 24 hr, serum-free medium. The method, then: Two human cancer-derived cell lines were obtained from the American Type Culture Collection (ATCC) in Rockville, Md. The cell lines included COLO 205, a human colon cancer-derived cell line that expresses MMP-2 or gelatinase A, and E-10, a human breast cancer-derived cell line that expresses MMP-9 or gelatinase B.
Cells of each cell line were cultured in 75 cm^2 T-flasks in RPMI-1640 (Gibco) with 10% heat-inactivated fetal bovine serum (FBS) containing 100 units/mL penicillin and 100 μg/mL streptomycin. The cells were fed every two days, and passaged every week. The cells were grown to 80-90% confluence, and then the FBS-containing medium was replaced with a serum-free medium (SFM). CMT-3 (CollaGenex Pharmaceuticals, Inc., Newtown, Pa.) was added in several concentrations to the cells in SFM. Conditioned medium was collected after 24 hr, centrifuged to remove cell debris, and then assayed for MMP protein expression by Western blot using a conventional technique, and scanning the blots with a laser densitometer.
For orientation: Immunoblotting shows a protein as a band on a membrane.

A further series deals with gelatinase A (MMP-2). Description: Gelatin zymography of conditioned media of TSU PR1 and MAT LyLu cells, MMP-2. It counts as cell-based. The settings on record: 48 hours, serum-free medium. How it is done: Next we examined whether CMT-3 and doxycycline differentially affect the production of two major classes of gelatinases: gelatinase A (MMP-2) and gelatinase B (MMP-9). Confluent cultures of TSU PR1 and MAT LyLu cells were incubated with various concentrations of doxycycline and CMT-3 for 48 hours in serum-free medium. The conditioned media were then analyzed for MMPs by zymography as described below.
Conditioned media were collected from the cultures that had been treated with doxycycline or CMT-3 for 2 days. Media were then incubated with SDS-gel electrophoresis sample buffer for 30 min at room temperature, and then analyzed by gel electrophoresis on SDS-polyacrylamide gel (8%) containing gelatin (1 mg/mL). Following electrophoresis, the gels were washed twice with 0.25% TRITON® X100 for 30 min each, and incubated for 18 hr at 37° C. in an MMP digestion buffer comprising 20 mM Tris-HCl, pH 7.4, containing 30 mM NaCl, 1 mM PMSF, 10 mM CaCl2, 2 μM ZnSO4, 0.005% Brij35, and 0.02 NaN3 (Lokeshwar 1993a). After incubation, the gels were briefly rinsed in distilled water and stained with 0.25% Coomassie brilliant blue R250 prepared in 40% isopropanol solution for 1 hr. Gels were destained with 7% acetic acid. the locations of MMPs in the gels were visible as clear areas on a blue background, indicative of digested gelatin.

In series [2] the test system is DU-145 and TSU-PR1 prostate cancer cell lines. Nature of the series: Prostate cancer cell viability/proliferation (trypan blue, MTT). It counts as cell-based, human. The settings on record: Homo sapiens; 48 hr exposure; read-out: 50% inhibition dose (IC50), cell proliferation. The source says:
To determine the cytotoxicity of CMTs on prostate tumor cell lines, TSU-PR1 cells (and cells of other tumor cell lines) were exposed to various CMTs or to doxycycline for 24 hr or 48 hr in a complete medium. Cell viability (percent of live cells) was estimated by counting the cells following trypan blue staining. Cellular viability was also estimated by the tetrazolium dye reduction assay (MTT assay) (Lokeshwar et al. 1995b). Due to the aggressive proliferative capacity of cancer cells, it is assumed that viable cells are actively proliferating. Therefore, the measurement of viability was used as an estimate of proliferation. Results are expressed as Mean±SEM from three separate experiments.

The test system of another series is C8161 cells. Nature of the series: In vivo metastasis assay, C8161 cells i.v. in SCID mice. The settings on record: for Number of Lung Metastases/Mouse: Average ± SEM, control 231 ± 49. The method, then:
Immunosuppressed mice (athymic nude/nude SCID females from Harlan Sprague Dawley) were housed in autoclaved cages with microisolator tops, and all manipulations of the animals were done in a laminar flow hood after wiping down both the hood, gloves and cages with ABQ sterilant. The mice were fed sterile Pico Lab Chow (Purina) and autoclaved St. Louis tap water. […] The compounds and control (sterile water plus 2% carboxymethyl cellulose) were kept stored at −80° C. wrapped in aluminum foil to prevent any light induced changes, and each day's supply was thawed just prior to use. Four compounds were tested for their effects on the metastatic potential of C8161 cells injected intravenously via the tail vein: […] The concentration of the compounds in the vials used to give the 100 mg/kg doses were 2.5 times that in the 40 mg/kg dose so that approximately the same volume was used in both cases, approximately 0.5 mL/animal. The experiments started with nine animals per group at day −4. On day zero, 2×10^5 C8161 cells in cold Hank's Balanced Salt Solution (HBSS) were injected intravenously via tail vein inoculation. The experiment was continued for an additional 24 days, at which time the animals were sacrificed and their lungs removed and fixed in a solution of Bouins/formaldehyde (5 parts:1 part). Tumors were quantitated on the entire surface of the lungs by rotating the lungs and counting the tumors on each lobe using a 6× magnifying glass. Statistical analysis was performed using the statistical package of Microsoft's Excel spreadsheet software.

The subject of a further series is LNCAP cells. Description: Alamar Blue viability assay, LNCAP. The class given is cell-based, human. The source says: (§1) Several cancer cell lines and normal cells were examined in vitro to determine whether tetracycline compounds produce cytotoxic (cell killing) effects. A conventional assay for viability of cultured cells based on redox activity in the cells was employed (Pagé et al. 1993). The assay uses a redox dye Alamar Blue, which is a fluorogenic indicator dye that is converted to a fluorescent red product only when cells are carrying out electron transport activity, a widely accepted criterion of viability.
(§2) Cultured cells from three prostate tumor cell lines, LNCAP, DU-145, and PC-3, and normal prostate stromal cells obtained by biopsy of a normal person, were allowed to grow to confluence in multiwell microplates to minimize differences in proliferative activity among the cell types at the time of exposure to the test compound. CMT-3 was added to the wells at concentrations of 10 μM and 20 μM (50 μM also in the case of DU-145). At the start of the experiment, and again at 1, 2, and 3 days, selected wells were incubated with the indicator dye for 3 hr, and the fluorescence was measured on a Cytofluor 2300 fluorescent microplate reader.
(In general: Resazurin is reduced to fluorescent resorufin, in cell work by metabolically active cells.)

Another series has as its system PC-3 tumor cells. Nature of the series: Alamar Blue viability assay, PC-3. The class given is cell-based, human.
Excerpt: as §1, §2

Another series concerns DU-145 tumor cells. Nature of the series: Alamar Blue viability assay, DU-145. It counts as cell-based, human.
Excerpt: as §1, §2

The nature of another series: Serum half-life. The class given is in vivo.
A further series concerns prostate cancer cells. Description: Invasive potential of prostate cancer cells in vitro (summary). It counts as cell-based. The following applies: 5 μg/mL.

For orientation: half-life means how long it takes for the measured level to halve. A lower half-life goes with fast loss. Broadly, the inhibition is the percentage by which the read-out fell short of the control. Consider `NC(=O)C1=C(O)CC2CC3Cc4cccc(O)c4C(=O)C3=C(O)C2(O)C1=O` (centres unmarked) [CMT-3, 6-demethyl-6-deoxy-4-de(dimethylamino)tetracycline], for which the “Percent Inhibition of MMP Protein Expression” value in series [1] (COLO 205, MMP-2, 10 μM) is given as 13.3%; in series [1] (COLO 205, MMP-2, 20 μM), 66.9%. In addition, the “MMP-2 levels in conditioned media (zymography)” value in the series with gelatinase A (MMP-2) was “decreased MMP-2 and MMP-9 levels at a lower concentration than did doxycycline”. Besides, in series [2], the IC50 amounted to 2.7 µg/mL (≈ 7.27 µM). Besides, the “Number of Lung Metastases/Mouse” value in the series with C8161 cells (40 mg/kg daily intragastric) is given as 111 ± 105; in the series with C8161 cells (100 mg/kg daily intragastric) it was 176 ± 82. For the same molecule, the “effect on number of lung metastases (significance)” value in the series on C8161 cells (40 mg/kg daily, p<0.05) is “significantly reduced the number of lung metastases”; in the series with C8161 cells (100 mg/kg), “did not significantly reduce the number of lung metastases”. In addition, the cytotoxicity entry in the series on LNCAP cells (10 μM, 24 hr) is given as “nearly complete”; in the series on PC-3 tumor cells (24 hr), “about 25%”; in the series on PC-3 tumor cells (48 hr) it was roughly 50%; in the series with PC-3 tumor cells (72 hr), roughly 75%; with DU-145 tumor cells (20 μM), “some cytotoxicity appearing after 72 hr”; in the series on DU-145 tumor cells (50 μM, over 72 hr) it was “significant cytoxicity”. In addition, the “time to complete cytotoxicity” value in the series on LNCAP cells (20 μM) was no more than 24 h. This molecule also had a half-life in the series “Serum half-life” of roughly 28 h. For the same molecule, the inhibition at 5 µg/mL with prostate cancer cells came out at 90%.
